{
  "source": "patent US12378250B2",
  "about": "“Tricyclic compound as IRAK4 inhibitor” (KOREA RESEARCH INSTITUTE OF CHEMICAL TECHNOLOGY, priority 2018, dated 2025)",
  "key": {"[1]": {"test_system": "IFN-α secretion, peripheral blood mononuclear cells (PBMCs)", "assay": "Suppression of IFN-α secretion in ODN2216-treated PBMCs (ELISA)", "type": "cell-based", "details": "PBMC, 500 nM ODN2216, 72 hours, read-out: IFN-α, % inhibition degree", "method_in_brief": "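PBMCs (1×10^5 cells/well for TNF-α, 2×10^5 for IFN-α) preincubated 30 min with compound, then stimulated with 100 ng/ml LPS for 24 h (TNF-α) or 500 nM ODN2216 for 72 h (IFN-α). Cytokines in supernatants quantified by sandwich ELISA with TMB, absorbance 450/570 nm.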"}, "[2]": {"test_system": "TNF-α in serum, LPS-induced systemic inflammatory disease", "assay": "Suppressive effects on LPS-induced systemic inflammatory disease in mice (serum TNF-α)", "type": "in vivo, C57BL/6 mice", "details": "doses of 50 and 100 mg/kg, oral, 2 hours prior to LPS 15 mg/kg i.p.", "procedure": "As experimental animals, 8-week-old C57BL/6 (20 to 23 g) mice were supplied from Orient Bio Co., Ltd. (Seongnam, Gyeonggi-do) and used. The mice were acclimatized for 2 weeks or more in an animal room of the Korea Research Institute of Chemical Technology, where temperature (22±1° C.) and humidity (50±10%) were automatically adjusted, and then used for experiments, and allowed to freely ingest water and feed. This animal experiment was performed with the approval of the Animal Care and Use Committee of the Korea Research Institute of Chemical Technology. A systemic inflammatory disease was induced by administering a dose of 15 mg/kg lipopolysaccharide (LPS, Sigma L2880) intraperitoneally to the mice. A test drug was suspended in a 10% Cremophor solution and administered orally 2 hours prior to LPS injection, the mice were anesthetized with isoflurane 1 hour after LPS administration, and blood was collected from the heart. Serum was obtained by centrifuging the collected blood at 13,000 rpm for 15 minutes, store at −20° C., and then taken if needed to measure the content of cytokine (TNF-α) in serum using an ELISA kit manufactured by BD Biosciences. […]"}},
  "data": [
    {"smiles": "Fc1cncc(-c2ccc3[nH]c4ncnc(N[C@H]5CC[C@H](N6CCOCC6)CC5)c4c3c2)c1", "note": "[Compound 6aaf, 6-(5-fluoropyridin-3-yl)-N-(trans-4-morpholinocyclohexyl)-9H-pyrimido[4,5-b]indole-4-amine]", "values": [
      {"measurement": "inhibition at 0.1 µM", "setting": "[1]; 0.1 μM", "value": 48, "unit": "%"},
      {"measurement": "inhibition at 1 µM", "setting": "[1]; 1 μM", "value": 96, "unit": "%"},
      {"measurement": "suppressive effect on systemic inflammation (serum TNF-α) compared to PF-06650833", "setting": "[2]", "value": "better suppressive effect than PF-06650833"}
    ]}
  ]
}
